Reference: ChEMBL document CHEMBL5260828, “Amphiphilic glycoconjugates as potential anti-cancer chemotherapeutics” (Eur J Med Chem, 2018)
In brackets after ≈: the same amount, converted by molar mass.

Tests used:
HT-29 [1] = test: Cytotoxicity against human HT-29 cells incubated upto 96 hrs by MTT assay; assay type: functional, cell-based; details: HT-29, 96 h
Caco-2 = test: Cytotoxicity against human Caco-2 cells incubated upto 96 hrs by MTT assay; assay type: functional, cell-based; details: Caco-2, 96 h
T84 = test: Cytotoxicity against human T84 cells incubated upto 96 hrs by MTT assay; assay type: functional, cell-based; details: T84, 96 h
NCI-H460 = test: Cytotoxicity against human NCI-H460 cells assessed as inhibition of cell proliferation by propidium iodide assay; assay type: functional, cell-based
[2] = Cytotoxicity against human GXF 251L cells assessed as inhibition of cell proliferation by propidium iodide assay; assay type: functional, cell-based
DU-145 = test: Cytotoxicity against human DU-145 cells assessed as inhibition of cell proliferation by propidium iodide assay; assay type: functional, cell-based
MCF7 = test: Cytotoxicity against human MCF7 cells assessed as inhibition of cell proliferation by propidium iodide assay; assay type: functional, cell-based
LNCaP = test: Cytotoxicity against human LNCaP cells assessed as inhibition of cell proliferation by propidium iodide assay; assay type: functional, cell-based
T-24 = test: Cytotoxicity against human T24 cells assessed as inhibition of cell proliferation by propidium iodide assay; assay type: functional, cell-based
[3] = Cytotoxicity against human RXF 486L cells assessed as inhibition of cell proliferation by propidium iodide assay; assay type: functional, cell-based
[4] = Cytotoxicity against human OVXF 1619L cells assessed as inhibition of cell proliferation by propidium iodide assay; assay type: functional, cell-based
LXF-289 cell line = test: Cytotoxicity against human LXF-289 cell line assessed as inhibition of cell proliferation by propidium iodide assay; assay type: functional, cell-based
[5] = Cytotoxicity against human MEXF 462NL cells assessed as inhibition of cell proliferation by propidium iodide assay; assay type: functional, cell-based
MEXF514 = test: Cytotoxicity against human MEXF514 cells assessed as inhibition of cell proliferation by propidium iodide assay; assay type: functional, cell-based
PANC-1 = test: Cytotoxicity against human PANC-1 cells assessed as inhibition of cell proliferation by propidium iodide assay; assay type: functional, cell-based
OVCAR-3 = test: Cytotoxicity against human OVCAR-3 cells assessed as inhibition of cell proliferation by propidium iodide assay; assay type: functional, cell-based
CWR22R = test: Cytotoxicity against human 22Rv1 cells assessed as inhibition of cell proliferation by propidium iodide assay; assay type: functional, cell-based
MEXF276L = test: Cytotoxicity against human MEXF276L cells assessed as inhibition of cell proliferation by propidium iodide assay; assay type: functional, cell-based
SF-268 = test: Cytotoxicity against human SF-268 cells assessed as inhibition of cell proliferation by propidium iodide assay; assay type: functional, cell-based
PC-3M = test: Cytotoxicity against human PC-3M cells assessed as inhibition of cell proliferation by propidium iodide assay; assay type: functional, cell-based
RXF 944 = test: Cytotoxicity against human RXF 944 cells assessed as inhibition of cell proliferation by propidium iodide assay; assay type: functional, cell-based
HCT-116 [6] = test: Cytotoxicity against human HCT-116 cells assessed as inhibition of cell proliferation by propidium iodide assay; assay type: functional, cell-based
[7] = test system: Lung LXF 629L tumor cell line; test: Cytotoxicity against human Lung LXF 629L tumor cell line assessed as inhibition of cell proliferation by propidium iodide assay; assay type: functional, cell-based
MAXF401 cell line = test: Cytotoxicity against human MAXF401 cells assessed as inhibition of cell proliferation by propidium iodide assay; assay type: functional, cell-based
[8] = Cytotoxicity against human OVXF 899L cells assessed as inhibition of cell proliferation by propidium iodide assay; assay type: functional, cell-based
HT-29 [9] = test: Cytotoxicity against human HT-29 cells assessed as inhibition of cell proliferation by propidium iodide assay; assay type: functional, cell-based
LXFL 529 = test: Cytotoxicity against human LXFL 529 cells assessed as inhibition of cell proliferation by propidium iodide assay; assay type: functional, cell-based
RXF 393 = test: Cytotoxicity against human RXF 393 cells assessed as inhibition of cell proliferation by propidium iodide assay; assay type: functional, cell-based
[10] = Cytotoxicity against African green monkey Vero cells incubated for 48 hrs by SRB colorimetric assay; assay type: toxicity, cell-based, Chlorocebus sabaeus
BC1 cell line = test: Cytotoxicity against human BC1 cell line incubated for 48 hrs by SRB colorimetric assay; assay type: functional, cell-based; details: BC1, 48 h
NCI-H187 = test: Cytotoxicity against human NCI-H187 cells incubated for 48 hrs by SRB colorimetric assay; assay type: functional, cell-based; details: NCI-H187, 48 h
KB = test: Cytotoxicity against human KB cells incubated for 48 hrs by SRB colorimetric assay; assay type: functional, cell-based
NUGC-3 = test: Growth inhibition of human NUGC-3 cells; assay type: functional
NCI-H23 = test: Growth inhibition of human NCI-H23 cells; assay type: functional
HCT-116/VM46 = test: Cytotoxicity against human HCT-116/VM46 cells; assay type: functional, cell-based
HCT-116 [11] = test: Cytotoxicity against human HCT-116 cells; assay type: functional, cell-based
A2780 = test: Cytotoxicity against human A2780 cells; assay type: functional, cell-based

Work on `C=C(C)[C@H]1CC=C(CO)CC1` yielded an IC50 (HT-29 [1]) of 100000 nM, an IC50 (Caco-2) of 78500 nM and an IC50 (T84) of 158000 nM.
`C/C=C(\C)[C@H](O[C@@H]1O[C@H](CO)[C@@H](O)[C@H](O)[C@H]1O)[C@H](C)/C=C(C)/C=C/C/C(C)=C/Cc1nc(OC)cc(O)c1C` showed an IC50 (NCI-H460) of 2000 nM, an IC50 [2] of 2000 nM and an IC50 (DU-145) of 2000 nM. It also gave an IC50 (MCF7) of 2000 nM, an IC50 (LNCaP) of 2000 nM and an IC50 (T-24) of 2000 nM. For the same compound, the IC50 [3] was 2000 nM, the IC50 [4] was 2000 nM and the IC50 (LXF-289 cell line) was 2000 nM. It also gave an IC50 [5] of 2000 nM, an IC50 (MEXF514) of 2000 nM and an IC50 (PANC-1) of 2000 nM. It also gave an IC50 (OVCAR-3) of 2000 nM, an IC50 (CWR22R) of 2000 nM and an IC50 (MEXF276L) of 2000 nM. The IC50 (SF-268) was 2000 nM, the IC50 (PC-3M) was 2000 nM and the IC50 (RXF 944) was 2000 nM. For the same compound, the IC50 (HCT-116 [6]) was 2000 nM, the IC50 [7] was 2000 nM and the IC50 (MAXF401 cell line) was 2000 nM. For the same compound, the IC50 [8] was 2000 nM, the IC50 (HT-29 [9]) was 2000 nM and the IC50 (LXFL 529) was 2000 nM. The IC50 (RXF 393) was 2000 nM.
For `CO[C@H]1[C@H](O)[C@@H](O)[C@H](O[C@H](C[C@@]2(C)[C@H](C)CCC(=O)[C@@H]2C)/C(C)=C/Cc2c(O)c(Cl)c(C)c(C=O)c2O)O[C@@H]1CO`, the IC50 at 48 h [10] was 6.9 µg/mL (≈ 11.5 µM), the IC50 (BC1 cell line) was 8.4 µg/mL (≈ 14 µM) and the IC50 (NCI-H187) was 7.9 µg/mL (≈ 13.2 µM). For the same compound, the IC50 (KB) was 19 µg/mL (≈ 31.7 µM).
`CC(C)[C@H](CCCCCCCCCCCCC(=O)NCC(=O)O)O[C@@H]1O[C@H](COC(=O)CCC(=O)O)[C@@H](O)[C@H](O)[C@H]1O` gave a GI50 (NUGC-3) of 17.8 µg/mL (≈ 29.4 µM) and a GI50 (NCI-H23) of 25.2 µg/mL (≈ 41.6 µM).
`CO[C@]12C=C[C@](C)(O1)[C@@H](OC(=O)/C=C/c1cn(C)cn1)C[C@H]1C(C)=CC[C@H](C(C)C)[C@H]1/C=C\2CO[C@@H]1OC[C@@H](O)[C@@H](O)[C@@H]1OC(C)=O` [ELEUTHEROBIN] showed an IC50 (HCT-116/VM46) of 10 nM, an IC50 (HCT-116 [11]) of 10 nM and an IC50 (A2780) of 10 nM.
